Reference: patent US20040023994A1 (priority 2002, published 2004)
“Also recorded” adds a separate entry of the source.

Columns and labels:
[1] = system: A-498 cells; assay: MTT cytotoxicity assay; assay type: cell-based, human; settings: for IC50: A-498, 72 h incubation, MTT
Experimental: (§1) Preliminary studies examining the in vitro cytotoxicity of cis-AVTP and trans-AVTG as compared to the parent drugs, were carried out using the 3-[4,5-dimethylthiazol-2-yl]-2,5-diphenyl tetrazolium bromide (MTT) cytotoxicity assay.

[2] = system: ACHN cells; assay: MTT cytotoxicity assay; assay type: cell-based, human; settings: for IC50: 72 h incubation, MTT
Experimental: as §1

**Q.** `CC(=O)C=Cc1ccccc1` [PBO, phenylbutenone] was tested. Which IC50 [1] did it give?
**A.** The IC50 was 252 ± 149 µM.

**Q.** And the IC50 [2]?
**A.** Its IC50 is 62.3 ± 10.7 µM.

**Q.** For `O=C(O)/C=C\Sc1ncnc2[nH]cnc12` [PTA, cis-3-(9H-purin-6-ylthio)acrylic acid], which cytotoxicity ([1]; A-498, within the concentration range examined (up to 500 μM)) is on record?
**A.** Its cytotoxicity is “little cytotoxicity; also recorded: not cytotoxic”.

**Q.** What about the cytotoxicity ([2]; within the concentration range examined (up to 500 μM)) of the same compound?
**A.** The cytotoxicity was “little cytotoxicity; also recorded: not cytotoxic”.

**Q.** Which results are given for `Cn1cnc([N+](=O)[O-])c1Sc1ncnc2nc[nH]c12` [AZA, azathioprine]?
**A.** IC50 ([1]; Homo sapiens, A498): 50.2 ± 10.4 µM; IC50 ([2]; Homo sapiens): 22.1 µM
